Data reported in the supplement of paper PMC10307832.

How the values were obtained:
Assay in all cases: relative viability (nuclei count vs DMSO), 5 days (fraction); higher = more cells survive
Cediranib = compound: COc1cc2c(Oc3ccc4[nH]c(C)cc4c3F)ncnc2cc1OCCCN1CCCC1 [Cediranib]
Method in brief: (§1)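 In 1536-well plates, lung cancer cell lines rested overnight at 37 °C before five library-drug doses (not always all listed), √10 apart, were pinned onto vehicle-anchored plates. Nuclei were counted with MetaXpress from 4× Hoechst images taken after 5 days without medium change. Viability compares treated-well with vehicle-well nuclei as a median over plates, and plates needed control CV below 25% plus at least one doubling to pass.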

Decitabine = compound: Nc1ncn([C@H]2C[C@H](O)[C@@H](CO)O2)c(=O)n1 [Decitabine]
Method in brief: as §1

Halofuginone = compound: O=C(C[C@H]1NCCC[C@@H]1O)Cn1cnc2cc(Br)c(Cl)cc2c1=O (racemic) [Halofuginone]
Method in brief: as §1

| Cell Line | relative viability (Cediranib; 0.04 µM) | relative viability (Cediranib; 0.1265 µM) | relative viability (Cediranib; 0.4 µM) | relative viability (Cediranib; 1.265 µM) | relative viability (Cediranib; 4 µM) | relative viability (Decitabine; 0.04 µM) | relative viability (Decitabine; 0.1265 µM) | relative viability (Decitabine; 0.4 µM) | relative viability (Decitabine; 1.265 µM) | relative viability (Decitabine; 2 µM, anchor plate) | relative viability (Decitabine; 4 µM) | relative viability (Halofuginone; 0.001 µM) | relative viability (Halofuginone; 0.003162 µM) | relative viability (Halofuginone; 0.01 µM) | relative viability (Halofuginone; 0.03162 µM) | relative viability (Halofuginone; 0.1 µM) |
| --- | --- | --- | --- | --- | --- | --- | --- | --- | --- | --- | --- | --- | --- | --- | --- | --- |
| 201T | 1.04 | 1.1 | 0.911 | 0.956 | 0.974 | 0.981 | 1.02 | 1.04 | 0.612 | 0.855 | 0.953 | 0.97 | 0.967 | 0.952 | 0.933 | 0.803 |
| A549 | 0.929 | 0.953 | 0.889 | 0.897 | 0.996 | 0.858 | 0.724 | 0.554 | 0.174 | 0.265 | 0.159 | 1.03 | 0.972 | 0.975 | 0.766 | 0.385 |
| A-427 | 1.01 |  | 0.951 | 0.943 | 1.07 | 0.668 | 0.612 | 0.322 | 0.322 | 0.558 | 0.292 | 1.02 | 1.04 | 0.89 | 0.989 | 0.921 |
| ABC-1 | 0.995 | 1.11 | 0.851 | 0.759 | 0.92 | 0.804 | 0.97 | 0.758 | 0.733 | 1.12 | 0.67 | 0.939 | 1.02 | 0.881 | 0.934 | 0.77 |
| BEN | 1.07 | 0.643 | 0.903 | 0.758 | 0.931 | 0.848 | 0.853 | 0.663 | 0.587 | 0.771 | 0.505 | 0.993 | 1.05 | 1.05 | 1.03 | 0.65 |
| CAL-12T | 1 | 0.974 | 0.937 | 1.01 | 1.01 | 0.726 | 0.843 | 0.502 | 0.548 |  | 0.461 | 1.03 | 1.02 | 1.03 | 1.12 | 0.85 |
| COR-L23 | 1.06 | 0.957 | 0.914 | 1 | 1.27 | 0.677 | 0.629 | 0.484 | 0.379 | 0.441 | 0.308 | 1.14 | 1.02 | 0.982 | 0.931 | 0.268 |
| COR-L 105 | 0.862 | 0.911 | 0.944 | 0.889 | 0.923 | 0.666 | 0.798 | 0.711 | 0.648 | 0.696 | 0.577 | 1.07 | 0.955 | 0.874 | 0.824 | 0.711 |
| Calu-6 | 0.982 | 1.03 | 0.977 | 1.04 | 1.03 | 0.785 | 0.644 | 0.383 | 0.301 |  | 0.272 | 1.08 | 1.04 | 1 | 0.633 | 0.279 |
| ChaGo-K-1 | 0.965 | 0.733 | 0.952 | 1.1 | 0.997 | 0.933 | 0.816 | 0.537 | 0.482 | 0.537 | 0.477 | 0.995 | 0.968 | 0.916 | 0.967 | 1.03 |
| EBC-1 | 0.999 | 0.946 | 0.971 | 1.01 | 1.19 | 0.626 | 0.456 | 0.313 | 0.272 |  | 0.246 | 1.06 | 0.946 | 0.829 | 0.496 | 0.231 |
